According to patent publication US20180290138A1, “MICROFLUIDIC CHIP FOR SCREENING ANTICANCER DRUG RESISTANT CELLS AND USE THEREOF” (RESEARCH & BUSINESS FOUNDATION SUNGKYUNKWAN UNIVERSITY, priority 2015, published 2018):

Legend:
U87 cells = test: Evaluation of anticancer drug resistance: cell viability with doxorubicin, U87 cells (WT cells); type: cell-based; conditions: Homo sapiens, U-87 MG; U87 cells (WT cells) cultured in general medium; 72 h culture; living cell count; non-linear regression
Protocol: (§1) 3,000 cells (U87 and U87-DG cells) were seeded into a 96-well plate in 200 μl of an MEM medium containing doxorubicin at various concentrations (0, 0.005, 0.01, 0.02, 0.05, 0.1, 0.2, 0.5, 0.75, and 1 μM). After seventy-two hours of culturing, the number of living cells in each well was calculated. Cell viability was calculated by dividing the number of living cells in a doxorubicin-contained well by the number of living cells in a doxorubicin-free well. After plotting a concentration of doxorubicin with respect to cell viability, IC50 was estimated through non-linear regression analysis using Graphpad Prism (GraphPad Software, Inc., La Jolla, Calif. USA).

U87-DG cells = test: Evaluation of anticancer drug resistance: cell viability with doxorubicin, U87-DG cells (chip cells); type: cell-based; conditions: Homo sapiens; U87-DG cells (chip cells) cultured with Death galaxy chip under doxorubicin gradient; 72 h culture; living cell count; non-linear regression
Excerpt: In the Death galaxy chip, for 7 days, U87 cells derived from human primary glioblastoma were exposed to an anticancer drug such as doxorubicin according to a concentration gradient, and a hexagonal microchamber array was removed from a surface of the living cells (U87-DG cells)-attached cell culture plate. The inventors trypsinized the U87-DG cells to analyze the characteristic of phenotypes thereof, collected the cells, and transferred them to a new culture plate to culture the cells in a normal growth medium (MEM) for one week.
as §1

Compound `COc1cccc2c1C(=O)c1c(O)c3c(c(O)c1C2=O)C[C@@](O)(C(=O)CO)C[C@@H]3O[C@H]1C[C@H](N)[C@H](O)[C@H](C)O1` [doxorubicin] has an IC50 (U87 cells) of 50 nM and an IC50 (U87-DG cells) of 1470 nM.
